Experimental data: patent US11084800B2 (Achillion Pharmaceuticals, Inc., priority 2017, dated 2021)

Target: Human Factor D (Homo sapiens (Human), UniProt P00746)
Assay: Human Factor D Assay
Type: biochemical
Details: Factor D inhibition, assay of Example 10; read-out: IC5 (Stars)
Outline: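 Serum-purified Factor D (80 nM final) preincubated 5 min at room temperature with compound in 50 mM Tris, 1 M NaCl, pH 7.5. Z-L-Lys-SBz and DTNB added at 100 μM each; A405 followed every 30 s for 30 min. IC50 from nonlinear regression of rates versus concentration.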

Chain of Human Factor D (P00746 26-253): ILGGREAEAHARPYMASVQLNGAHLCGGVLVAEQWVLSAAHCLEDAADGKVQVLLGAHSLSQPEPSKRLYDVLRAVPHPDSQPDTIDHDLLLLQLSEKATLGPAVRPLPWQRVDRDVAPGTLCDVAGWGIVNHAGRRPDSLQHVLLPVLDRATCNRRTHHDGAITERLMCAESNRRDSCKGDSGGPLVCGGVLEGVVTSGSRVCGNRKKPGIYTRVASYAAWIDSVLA

SMILES | IC50 [µM]
CC(=O)c1nn(CC(=O)N2[C@H](C(=O)Nc3nc(Br)ccc3C)C[C@@]3(CCCN(C)C)C[C@@H]23)c2c(CF)cc(-c3cnc(C)nc3)cc12 [Compound 345, (1R,3S,5R)-2-(2-(3-acetyl-7-(fluoromethyl)-5-(2-methylpyrimidin-5-yl)-1H-indazol-1-yl)acetyl)-N-(6-bromo-3-methylpyridin-2-yl)-5-(3-(dimethylamino)propyl)-2-azabicyclo[3.1.0]hexane-3-carboxamide] | < 1
CC(=O)c1nn(CC(=O)N2[C@H](C(=O)Nc3nc(Br)ccc3C)C[C@@]3(Cc4ncc(C(C)C)s4)C[C@@H]23)c2ccc(-c3cnc(C)nc3)cc12 [Compound 349, (1R,3S,5R)-2-(2-(3-acetyl-5-(2-methylpyrimidin-5-yl)-1H-indazol-1-yl)acetyl)-N-(6-bromo-3-methylpyridin-2-yl)-5-((5-isopropylthiazol-2-yl)methyl)-2-azabicyclo[3.1.0]hexane-3-carboxamide] | < 1
CC(=O)c1nn(CC(=O)N2[C@H](C(=O)Nc3nc(Br)ccc3C)C[C@@]3(CN4CC(C)(C)C4)C[C@@H]23)c2c(C)cc(-c3cnc(C)nc3)cc12 [Compound 350] | < 1
CC(=O)c1nn(CC(=O)N2[C@H](C(=O)Nc3nc(Br)ccc3C)C[C@@]3(CN4CCCC4)C[C@@H]23)c2c(CF)cc(-c3cnc(C)nc3)cc12 [Compound 351, (1R,3S,5R)-2-(2-(3-acetyl-7-(fluoromethyl)-5-(2-methylpyrimidin-5-yl)-1H-indazol-1-yl)acetyl)-N-(6-bromo-3-methylpyridin-2-yl)-5-(pyrrolidin-1-ylmethyl)-2-azabicyclo[3.1.0]hexane-3-carboxamide] | < 1
CC(=O)c1nn(CC(=O)N2[C@H](C(=O)Nc3nc(Br)ccc3C)C[C@@]3(CN4CCC4)C[C@@H]23)c2c(CF)cc(-c3cnc(C)nc3)cc12 [Compound 353, (1R,3S,5R)-2-(2-(3-acetyl-7-(fluoromethyl)-5-(2-methylpyrimidin-5-yl)-1H-indazol-1-yl)acetyl)-5-(azetidin-1-ylmethyl)-N-(6-bromo-3-methylpyridin-2-yl)-2-azabicyclo[3.1.0]hexane-3-carboxamide] | < 1
CC(=O)c1nn(CC(=O)N2[C@H](C(=O)Nc3nc(Br)ccc3C)C[C@@]3(CN4CC5(CCC5)C4)C[C@@H]23)c2c(CF)cc(-c3cnc(C)nc3)cc12 [Compound 354, (1R,3S,5R)-5-(2-azaspiro[3.3]heptan-2-ylmethyl)-2-(2-(3-acetyl-7-(fluoromethyl)-5-(2-methylpyrimidin-5-yl)-1H-indazol-1-yl)acetyl)-N-(6-bromo-3-methylpyridin-2-yl)-2-azabicyclo[3.1.0]hexane-3-carboxamide] | < 1
CC(=O)c1nn(CC(=O)N2[C@H](C(=O)Nc3nc(Br)ccc3C)C[C@@]3(CN4CC(C)(C)C4)C[C@@H]23)c2c(CF)cc(-c3cnc(C)nc3)cc12 [Compound 355, (1R,3S,5R)-2-(2-(3-acetyl-7-(fluoromethyl)-5-(2-methylpyrimidin-5-yl)-1H-indazol-1 yl)acetyl)-N-(6-bromo-3-methylpyridin-2-yl)-5-((3,3-dimethylazetidin-1-yl)methyl)-2-azabicyclo[3.1.0]hexane-3-carboxamide] | < 1
CC(=O)c1nn(CC(=O)N2[C@H](C(=O)Nc3nc(Br)ccc3CN3CCn4c(nnc4C(F)(F)F)C3)C[C@@]3(C)C[C@@H]23)c2ccc(-c3cnc(C)nc3)cc12 [Compound 357, (1R,3S,5R)-2-(2-(3-acetyl-5-(2-methylpyrimidin-5-yl)-1H-indazol-1-yl)acetyl)-N-(6-bromo-3-((3-(trifluoromethyl)-5,6-dihydro-[1,2,4]triazolo[4,3-a]pyrazin-7(8H)-yl)methyl)pyridin-2-yl)-5-methyl-2-azabicyclo[3.1.0]hexane-3-carboxamide] | < 1
CC(=O)c1nn(CC(=O)N2[C@H](C(=O)Nc3nc(Br)ccc3C)C[C@@]3(Cc4nnco4)C[C@@H]23)c2c(C)cc(-c3cnc(C)nc3)cc12 [Compound 359, (1R,3S,5R)-5-((1,3,4-Oxadiazol-2-yl)methyl)-2-(2-(3-acetyl-7-methyl-5-(2-methylpyrimidin-5-yl)-1H-indazol-1-yl)acetyl)-N-(6-bromo-3-methylpyridin-2-yl)-2-azabicyclo[3.1.0]hexane-3-carboxamide] | < 1
CC(=O)c1nn(CC(=O)N2[C@H](C(=O)Nc3nc(Br)ccc3C)C[C@@]3(Cc4nnc(C)o4)C[C@@H]23)c2c(C)cc(-c3cnc(C)nc3)cc12 [Compound 360, (1R,3S,5R)-2-(2-(3-acetyl-7-methyl-5-(2-methylpyrimidin-5-yl)-1H-indazol-1-yl)acetyl)-N-(6-bromo-3-methylpyridin-2-yl)-5-((5-methyl-1,3,4-oxadiazol-2-yl)methyl)-2-azabicyclo[3.1.0]hexane-3-carboxamide] | < 1
Cc1ncc(-c2cc3c(C(N)=O)nn(CC(=O)N4[C@H](C(=O)Nc5nc(Br)ccc5C)C[C@@]5(C)C[C@@H]45)c3cn2)cn1 [Compound 361, 1-(2-((1R,3S,5R)-3-((6-bromo-3-methylpyridin-2-yl)carbamoyl)-5-methyl-2-azabicyclo[3.1.0]hexan-2-yl)-2-oxoethyl)-5-(2-methylpyrimidin-5-yl)-1H-pyrazolo[3,4-c]pyridine-3-carboxamide] | < 1
CC(=O)c1nn(CC(=O)N2[C@H](C(=O)Nc3nc(Br)ccc3-c3nnc(C(C)C)o3)C[C@@]3(C)C[C@@H]23)c2ccc(-c3cnc(C)nc3)cc12 [Compound 362, (1R,3S,5R)-2-(2-(3-acetyl-5-(2-methylpyrimidin-5-yl)-1H-indazol-1-yl)acetyl)-N-(6-bromo-3-(5-isopropyl-1,3,4-oxadiazol-2-yl)pyridin-2-yl)-5-methyl-2-azabicyclo[3.1.0]hexane-3-carboxamide] | 1 to 10
COc1ccc(Br)nc1NC(=O)[C@@H]1C[C@@]2(C)C[C@H]2N1C(=O)Cn1nc(C(C)=O)c2cc(-c3cnc(C)nc3)ccc21 [Compound 363, (1R,3S,5R)-2-(2-(3-acetyl-5-(2-methylpyrimidin-5-yl)-1H-indazol-1-yl)acetyl)-N-(6-bromo-3-methoxypyridin-2-yl)-5-methyl-2-azabicyclo[3.1.0]hexane-3-carboxamide] | < 1
CC(=O)c1nn(CC(=O)N2[C@H](C(=O)Nc3nc(Br)ccc3CN3CC(F)C3)C[C@@]3(C)C[C@@H]23)c2ccc(-c3cnc(C)nc3)cc12 [Compound 364, (1R,3S,5R)-2-(2-(3-acetyl-5-(2-methylpyrimidin-5-yl)-1H-indazol-1-yl)acetyl)-N-(6-bromo-3-((3-fluoroazetidin-1-yl)methyl)pyridin-2-yl)-5-methyl-2-azabicyclo[3.1.0]hexane-3-carboxamide] | < 1
CC(=O)c1nn(CC(=O)N2[C@H](C(=O)Nc3nc(Br)ccc3CC#N)C[C@@]3(C)C[C@@H]23)c2c(C)cc(-c3cnc(C)nc3)cc12 [Compound 365, (1R,3S,5R)-2-(2-(3-acetyl-7-methyl-5-(2-methylpyrimidin-5-yl)-1H-indazol-1-yl)acetyl)-N-(6-bromo-3-(cyanomethyl)pyridin-2-yl)-5-methyl-2-azabicyclo[3.1.0]hexane-3-carboxamide] | < 1
CC(=O)c1nn(CC(=O)N2[C@H](C(=O)Nc3nc(Br)ccc3C)C[C@@]3(CN4CC5(CC5)C4)C[C@@H]23)c2c(C)cc(-c3cnc(C)nc3)cc12 [Compound 366, (1R,3S,5R)-5-(5-azaspiro[2.3]hexan-5-ylmethyl)-2-(2-(3-acetyl-7-methyl-5-(2-methylpyrimidin-5-yl)-1H-indazol-1-yl)acetyl)-N-(6-bromo-3-methylpyridin-2-yl)-2-azabicyclo[3.1.0]hexane-3-carboxamide] | < 1
Cc1ncc(-c2ccc3c(c2)c(CC#N)nn3CC(=O)N2[C@H](C(=O)Nc3nc(Br)ccc3C)C[C@@]3(C)C[C@@H]23)cn1 [Compound 367, (1R,3S,5R)-N-(6-bromo-3-methylpyridin-2-yl)-2-(2-(3-(cyanomethyl)-5-(2-methylpyrimidin-5-yl)-1H-indazol-1-yl)acetyl)-5-methyl-2-azabicyclo[3.1.0]hexane-3-carboxamide] | > 10
Cc1ncc(-c2ccc3c(c2)c(C(C)(C)C#N)nn3CC(=O)N2[C@H](C(=O)Nc3nc(Br)ccc3C)C[C@@]3(C)C[C@@H]23)cn1 [Compound 368, (1R,3S,5R)-N-(6-bromo-3-methylpyridin-2-yl)-2-(2-(3-(2-cyanopropan-2-yl)-5-(2-methylpyrimidin-5-yl)-1H-indazol-1-yl)acetyl)-5-methyl-2-azabicyclo[3.1.0]hexane-3-carboxamide] | > 10
CC(=O)c1nn(CC(=O)N2[C@H](C(=O)Nc3nc(Br)ccc3C)C[C@@]3(CN4CC5(CC5)C4)C[C@@H]23)c2c(CF)cc(-c3cnc(C)nc3)cc12 [Compound 369, (1R,3S,5R)-5-(5-azaspiro[2.3]hexan-5-ylmethyl)-2-(2-(3-acetyl-7-(fluoromethyl)-5-(2-methylpyrimidin-5-yl)-1H-indazol-1-yl)acetyl)-N-(6-bromo-3-methylpyridin-2-yl)-2-azabicyclo[3.1.0]hexane-3-carboxamide] | < 1

Same assay, conditions: Table 8; Factor D 80 nM, substrate Z-L-Lys-SBz; read-out: IC50

SMILES | IC50 [µM]
COC(=O)CCCCCCCCCCCCCCCCC(=O)N[C@@H](CCC(=O)NCCOCCOCC(=O)NCCOCCOCC(=O)NC[C@@]12C[C@@H](C(=O)Nc3nc(Br)ccc3C)N(C(=O)Cn3nc(C(C)=O)c4cc(-c5cnc(C)nc5)ccc43)[C@@H]1C2)C(=O)OC [Compound 358, (S)-methyl 1-((1R,3S,5R)-2-(2-(3-acetyl-5-(2-methylpyrimidin-5-yl)-1H-indazol-1-yl)acetyl)-3-((6-bromo-3-methylpyridin-2-yl)carbamoyl)-2-azabicyclo[3.1.0]hexan-5-yl)-24-(methoxycarbonyl)-3,12,21,26-tetraoxo-5,8,14,17-tetraoxa-2,11,20,25-tetraazatritetracontan-43-oate] | > 10
